Patent US6673368B2, “Colonic motor dysfunction remedies comprising aminothiazole derivatives as active ingredients” (Zeria Phamaceutical Co., Ltd., priority 2000, dated 2004)

Columns and labels:
[1] = system: gastric antrum of male dogs; assay: Effects on gastric motor activity (force transducers, conscious dogs, postcibal period); assay type: in vivo; conditions: dog, until 1 hour after administration, 30 minutes before administration = 100%
Excerpt: (§1) Test 1 [Effects on Gastric and Colonic Motor Activity]
(§2) Force transducers (“F-12IS”, trade name; manufactured by Star Medical Technologies, Inc.) were chronically sutured in the gastric antrum and large intestines of male dogs (body weight: 9 to 11 kg, 5 to 6 dogs per group) (Itoh, Z. et al., Am. J. Dig. Dis. 22, 117-124, 1977). Contraction signals from the respective regions in postcibal period were amplified and recorded (“RTA-1200”, trade name; manufactured by Nihon Kohden Corporation). The contraction signals, which had been collected in a computer, were analyzed by using an analysis program (“DSSDDWHD V.30”, trade name; prepared by Nihon Kohden Corporation), whereby motor indexes were calculated. The test drugs were administered through catheters which had been chronically indwelled beforehand in the duodenum, respectively. Supposing that the coefficient of motor 30 minutes before the administration of drug was 100%, the results were calculated as percents of motor index until 1 hour after the administration.

[2] = system: large intestines of male dogs; assay: Effects on colonic motor activity (force transducers, conscious dogs, postcibal period); assay type: in vivo; conditions: dog; for Percent of motor index, large intestine: until 1 hour after administration, 30 minutes before administration = 100%; for Effect on colonic motility (in words): intraduodenal, doses of Table 1
Excerpt: as §1, §2

male SD rats = assay: Effects on defecation in rats; assay type: in vivo, rat; conditions: 10 mg/kg intraperitoneal, dry stool weight until 60 minutes after administration, control average = 100%
Protocol: Test 2 [Effects on Defecation]
Test drugs were intraperitoneally administered to male SD rats (8 rats per group). Stools were recovered until 60 minutes after the administration, and their dry weights were measured. Supposing that that the average of stool weights in a control group was 100%, the averages of percent weights of individual test drug groups were calculated.

| Compound | Percent of motor index, gastric antrum ([1]; 1 mg/kg intraduodenal) [%] | Percent of motor index, large intestine ([2]; 1 mg/kg intraduodenal) [%] | Effect on colonic motility (in words) [2] | Percent of motor index, gastric antrum ([1]; 10 mg/kg intraduodenal) [%] | Percent of motor index, large intestine ([2]; 10 mg/kg intraduodenal) [%] | Percent stool weight (male SD rats) [%] | Percent of motor index, gastric antrum ([1]; 3 mg/kg intraduodenal) [%] | Percent of motor index, large intestine ([2]; 3 mg/kg intraduodenal) [%] |
| --- | --- | --- | --- | --- | --- | --- | --- | --- |
| COc1cc(N)c(Cl)cc1C(=O)NC1CCN(CCCOc2ccc(F)cc2)CC1OC (stereo not drawn) [Cisapride, cisapride] | 158.7 | 114.5 | no significant effect |  |  |  |  |  |
| COc1cc(O)c(C(=O)Nc2nc(C(=O)NCCN(C(C)C)C(C)C)cs2)cc1OC.Cl.O.O.O [Compound 1, N-(N′,N′-diisopropylaminoethyl)-[2-(2-hydroxy-4,5-dimethoxybenzoylamino)-1,3-thiazol-4-yl]carboxamide HCL trihydrate] |  |  |  | 163.7 | 136.1 | 361.8 |  |  |
| CC(C)N(CCNC(=O)c1csc(NC(=O)c2cccc(C#N)c2)n1)C(C)C.Cl [Compound 2, N-(N′,N′-diisopropylaminoethyl)-[2-(3-cyanobenzoyl-amino)-1,3-thiazol-4-yl]carboxamide hydrochloride] |  |  |  | 189.5 | 221.7 | 766.7 |  |  |
| CC(C)N(CCNC(=O)c1csc(NC(=O)c2cccc(N)c2)n1)C(C)C [Compound 3, N-(N′,N′-diisopropylaminoethyl)-[2-(3-aminobenzoyl-amino)-1,3-thiazol-4-yl]carboxamide] |  |  |  | 244.6 | 249.9 | 733.3 |  |  |
| COc1ccc(C(=O)NCc2ccc(OCCN(C)C)cc2)cc1OC [Itopride, itopride] |  |  | no significant effect | 132.7 | 122.1 |  |  |  |
| CCOc1cc(N)c(Cl)cc1C(=O)NCC1CN(Cc2ccc(F)cc2)CCO1 (stereo not drawn) [Mosapride, mosapride] |  |  | no significant effect |  |  |  | 146.2 | 119.2 |
